Data from publication PMC8518382, “Identification of a Bromodomain‐like Region in 15‐Lipoxygenase‐1 Explains Its Nuclear Localization” (Angewandte Chemie (International Ed. in English), 2021).
Where “and” joins values, the source holds several entries; their conditions need not be identical. Equal values may be shown once.

Target: T1, 15-LOX-1 (Homo sapiens, UniProt P16050)
T1 sequence (P16050 1-662): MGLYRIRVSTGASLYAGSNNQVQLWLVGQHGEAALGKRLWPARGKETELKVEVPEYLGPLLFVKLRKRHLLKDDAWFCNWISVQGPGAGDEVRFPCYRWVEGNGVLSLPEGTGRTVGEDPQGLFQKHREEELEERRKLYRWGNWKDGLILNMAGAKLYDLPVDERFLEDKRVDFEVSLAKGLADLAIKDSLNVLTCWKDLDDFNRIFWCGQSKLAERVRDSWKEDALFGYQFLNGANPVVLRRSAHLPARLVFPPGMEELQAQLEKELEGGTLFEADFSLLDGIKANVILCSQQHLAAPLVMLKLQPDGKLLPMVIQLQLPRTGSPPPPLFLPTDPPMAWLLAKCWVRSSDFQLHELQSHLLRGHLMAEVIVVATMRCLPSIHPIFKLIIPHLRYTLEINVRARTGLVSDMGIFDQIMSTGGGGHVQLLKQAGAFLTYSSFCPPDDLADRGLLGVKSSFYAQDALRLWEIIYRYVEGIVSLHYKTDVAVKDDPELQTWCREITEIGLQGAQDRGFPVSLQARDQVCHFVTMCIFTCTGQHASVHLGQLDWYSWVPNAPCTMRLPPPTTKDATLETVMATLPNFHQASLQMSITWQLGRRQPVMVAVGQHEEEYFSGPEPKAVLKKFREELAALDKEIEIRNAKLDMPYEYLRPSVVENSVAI
Experiment: 15-LOX-1 activity assay, UV-absorbance change for linoleic acid conversion
Assay type: biochemical
Set-up: His-tag (N); made in house; host or cells: E. coli BL21(DE3)
Conditions: for IC50: 10 min pre-incubation at RT, 25 µM linoleic acid, absorbance 234 nm; for Hill-slope: linoleic acid conversion assay
Excerpt: In brief, an alkyne‐alcohol was linked to propargyl halide (Cl or Br) using a CuI‐catalyzed Sonogashira cross‐coupling reaction followed by biotinylation of the alcohol using EDCI and HOBt as reagents to provide the desired biotinylated bis‐alkyne probes. The biotinylated bis‐alkynes were subjected to 15‐LOX‐1 binding studies using a 15‐LOX‐1 activity assay based on the UV‐absorbance change for linoleic acid conversion (Figure 1 a). […] Next, we evaluated the effect of the extension of the terminal ethyl substitution of inhibitor 1. […]
empty plasmid was proceed with the same procedure, which lysate was used as the negative control (referred as BL21 control later) in 15-LOX-1 recombinant enzyme inhibition studies.
1.3. Purification of recombinant human 15-LOX-1
The 15-LOX-1 with N-terminal his-tag was produced as described above. After removing the cell debris, the supernatant containing 15-LOX-1 was loaded on a Ni-NTA column (Qiagen, Hilden, Germany) pre-equilibrated with LOX lysis buffer. The column was washed twice with 30 column volume of LOX lysis buffer, and once with 30 column volume of wash buffer (25 mM HEPES, 300 mM NaCl, 25 mM Imidazole, pH 8.0). Later, the 15-LOX-1 was eluted twice with 2 column volume of elution buffer (25 mM HEPES, 300 mM NaCl, 250 mM Imidazole, pH 8.0), followed by desalting with a PD-10 column (Sigma-Aldrich) with LOX storage buffer (25 mM HEPES, 20% Glycerol, pH 7.5). The desalted 15-LOX-1 was further purified and concentrated with Vivaspin Turbo 15 (30.000 MWCO). The protein concentration was determined by Nanodrop spectrophotometry. The 100 μl aliquots of 15-LOX-1 were stored at -20 for further experiments.
15-LOX-1 recombinant enzyme inhibition assay
The 15-LOX-1 inhibition assay has been detailed previously. Briefly, the conversion of linoleic acid to hydroperoxy-(9Z,11E)-octadecadienoic acid (λmax of 234 nm) was used to determine the activity of the 15-LOX-1 enzyme. The conversion rate was the slope of UV-absorbance at 234 nm overtime at the […]
To determine the IC50 of probes, the cell lysate was pre-diluted in LOX assay buffer at a ratio of 1:160. The inhibition assay was done in an F-bottom UV-STAR 96-well plate, in which 50 µl of the diluted enzyme was incubated with 140 µl of a probe diluted in LOX assay buffer for 10 min at room temperature (RT). Later 10 µl of 500 µM linoleic acid dissolved in ethanol was added to the plate to reach a final concentration of 25 µM. The UV-absorbance at 234 nm was determined by a BioTek Synergy H1 plate reader (BioTek, Winooski, VT, USA) . The slope of the 15-LOX-1 sample untreated with the probe was set as 100%, while the slope of the BL21 control sample was set as 0%.
For the determination of enzyme kinetics, a series concentration of linoleic acid was used. Fifty µl of pre-diluted 15-LOX-1 enzyme was incubated with 140 µl of probe solution at a fixed concentration for 10 min at RT. Subsequently, 10 µl of a series concentration of linoleic acid was added to a final concentration ranging from 10 µM to 100 µM. The conversion rate was calculated as the same as […]
described in the IC50 determination assay. Michaelis-Menten plots, Lineweaver-Burk plots, Km, and Vmax, are generated using GraphPad Prism 8.3.0. […]

| Mode of inhibition (Lineweaver–Burk plots) (Km constant, Vmax decreases with inhibitor concentration) | Compound | IC50 | Hill-slope |
| --- | --- | --- | --- |
| non‐competitive LOX inhibition | CCCCCC#CCC#CCOC(=O)CCCC[C@@H]1SC[C@@H]2NC(=O)N[C@@H]21 [Labelox B (3)] | 0.62 µM and 0.6 µM | – |
| – | c1ccc2c(c1)SCc1c-2[nH]c2ccccc12 [PD146176] | ~4 µM | 1 |
| – | O=c1cc(-c2ccccc2)oc2cc(O)c(O)c(O)c12 [Baicalein] | – | much higher |
